Results published in the supplement of paper PMC13380429.
Where a name gives a salt, the structure may show the parent alone.

Tests used:
Conditions in all cases: 72 h
[1] = test system: Caco-2; assay: cell viability relative to DMSO; higher = less toxic
[2] = test system: HepG2; assay: as above
[3] = test system: U2OS; assay: as above
[4] = test system: Vero E6; assay: as above
[5] = test system: Caco-2; assay: relative viability EC50 (midpoint between 100% and the lowest measured viability); higher = less toxic
[6] = test system: HepG2; assay: as above
[7] = test system: U2OS; assay: as above
[8] = test system: Vero E6; assay: as above
[9] = test system: Caco-2; assay: drug sensitivity score (DSS) for viability; higher = more toxic; extreme values may be limits of the assay
[10] = test system: HepG2; assay: as above
[11] = test system: U2OS; assay: as above
[12] = test system: Vero E6; assay: as above
[13] = test system: Calu-3; assay: cell viability relative to DMSO; higher = less toxic
[14] = test system: Calu-3; assay: relative viability EC50 (midpoint between 100% and the lowest measured viability); higher = less toxic
[15] = test system: Calu-3; assay: drug sensitivity score (DSS) for viability; higher = more toxic; extreme values may be limits of the assay

SMILES | cell viability ([1]; 1 nM) [%] | cell viability ([1]; 10 nM) [%] | cell viability ([1]; 100 nM) [%] | cell viability ([1]; 1000 nM) [%] | cell viability ([1]; 10000 nM) [%] | cell viability ([2]; 1 nM) [%] | cell viability ([2]; 10 nM) [%] | cell viability ([2]; 100 nM) [%] | cell viability ([2]; 1000 nM) [%] | cell viability ([2]; 10000 nM) [%] | cell viability ([3]; 1 nM) [%] | cell viability ([3]; 10 nM) [%] | cell viability ([3]; 100 nM) [%] | cell viability ([3]; 1000 nM) [%] | cell viability ([3]; 10000 nM) [%] | cell viability ([4]; 1 nM) [%] | cell viability ([4]; 10 nM) [%] | cell viability ([4]; 100 nM) [%] | cell viability ([4]; 1000 nM) [%] | cell viability ([4]; 10000 nM) [%] | relative viability EC50 [5] [µM] | relative viability EC50 [6] [µM] | relative viability EC50 [7] [µM] | relative viability EC50 [8] [µM] | drug sensitivity score [9] | drug sensitivity score [10] | drug sensitivity score [11] | drug sensitivity score [12] | cell viability ([13]; 1 nM) [%] | cell viability ([13]; 10 nM) [%] | cell viability ([13]; 100 nM) [%] | cell viability ([13]; 1000 nM) [%] | cell viability ([13]; 10000 nM) [%] | relative viability EC50 [14] [µM] | drug sensitivity score [15]
CC(C)C[C@H](CN)CC(=O)O [PREGABALIN] | 128 | 122 | 95 | 104 | 82.6 | 105 | 87.3 | 106 | 103 | 98.9 | 94.5 | 102 | 98.9 | 98.2 | 98.2 | 93.5 | 105 | 106 | 103 | 100 | > 10 | > 10 | > 10 | > 10 | 0.3 | 0 | 0 | 0 | – | – | – | – | – | – | –
CC1=C(C(=O)OC(C)C)C(c2cccc([N+](=O)[O-])c2)C(C(=O)OC2CN(C(c3ccccc3)c3ccccc3)C2)=C(N)N1 (stereo not drawn) [azelnidipine] | 89 | 94.8 | 100 | 87.1 | 87.6 | – | – | – | – | – | 101 | 97.5 | 98.3 | 98.1 | 90.4 | 91.4 | 97.5 | 92.1 | 96.2 | 88.1 | > 10 | – | > 10 | > 10 | 0 | – | 0 | 0 | 92.8 | 106 | 101 | 96.8 | 109 | > 10 | 0
CCCCc1ncc(/C=C(\Cc2cccs2)C(=O)O)n1Cc1ccc(C(=O)O)cc1 [eprosartan] | 98.1 | 106 | 105 | 110 | 103 | – | – | – | – | – | 100 | 101 | 99.3 | 102 | 95.9 | 104 | 97.7 | 100 | 97.1 | 101 | > 10 | – | > 10 | > 10 | 0 | – | 0 | 0 | 93.8 | 94.9 | 101 | 106 | 109 | > 10 | 0
Nc1nccc(Oc2ccc(NC(=O)c3cn(COP(=O)(O)O)cc(-c4ccc(F)cc4)c3=O)cc2F)c1Cl | 97.2 | 96.8 | 94 | 94.5 | 90.2 | 104 | 102 | 108 | 99.8 | 35 | 97.9 | 103 | 98.7 | 104 | 106 | 106 | 103 | 105 | 97.5 | 102 | > 10 | 3.15 | > 10 | > 10 | 0 | 3.6 | 0 | 0 | – | – | – | – | – | – | –
OC[C@H]1O[C@@H](n2cnc3c(N[C@H]4CCC[C@@H]4O)ncnc32)[C@H](O)[C@@H]1O | 103 | 99.3 | 104 | 101 | 107 | 86.2 | 84 | 95 | 102 | 94 | 99.4 | 100 | 98.6 | 97.1 | 102 | 103 | 102 | 98.9 | 99 | 97.3 | > 10 | > 10 | > 10 | > 10 | 0 | 0 | 0 | 0 | – | – | – | – | – | – | –
CC(=O)NNC(=O)N1Cc2ccccc2Oc2ccc(Cl)cc21 | 105 | 100 | 107 | 95.5 | 99.7 | 98.5 | 102 | 96.1 | 94 | 87.7 | 98.5 | 95.9 | 101 | 99.9 | 102 | – | – | – | – | – | > 10 | > 10 | > 10 | – | 0 | 0.1 | 0 | – | – | – | – | – | – | – | –
Cn1c(COP(=O)(NCCBr)NCCBr)cnc1[N+](=O)[O-] [TH-302] | 107 | 94.5 | 98.6 | 97.7 | 89 | 97.6 | 97 | 118 | 103 | 81.3 | 103 | 105 | 99.9 | 105 | 108 | 101 | 100 | 98.8 | 93.1 | 97.5 | > 10 | > 10 | > 10 | > 10 | 0 | 0.4 | 0 | 0 | – | – | – | – | – | – | –
COc1ccnc2[nH]cc(C(=O)C(=O)N3CCN(C(=O)c4ccccc4)C[C@H]3C)c12 [BMS-806] | 99.3 | 99 | 96.1 | 108 | 107 | – | – | – | – | – | 93.3 | 104 | 95.1 | 105 | 100 | 107 | 102 | 102 | 105 | 99.9 | > 10 | – | > 10 | > 10 | 0 | – | 0 | 0 | 105 | 108 | 107 | 110 | 99.3 | > 10 | 0
C/C1=C/C[C@@H](/C(C)=C/c2csc(C)n2)OC(=O)C[C@H](O)C(C)(C)C(=O)[C@H](C)[C@@H](O)[C@@H](C)CCC1 [epothilone-D] | 101 | 83.1 | 53.9 | 46.3 | 56.9 | 91.8 | 50.6 | 22.2 | 15.8 | 22.2 | 97.6 | 53.1 | 29.5 | 23.2 | 41.5 | 99.8 | 83.9 | 45.1 | 25.3 | 46.8 | 0.0202 | 0.0074 | 0.0075 | 0.0363 | 17.4 | 31.7 | 29.4 | 21.5 | 110 | 84 | 61.9 | 55.2 | 54.1 | – | 14.8
Cc1oc2ccccc2c1CNC(=O)NCc1cccs1 | 103 | 106 | 98.4 | 96.9 | 96.6 | – | – | – | – | – | – | – | – | – | – | 103 | 107 | 102 | 96.9 | 97.9 | > 10 | – | – | > 10 | 0 | – | – | 0 | 92.4 | 93.4 | 96.2 | 89.9 | 99.3 | > 10 | 0
O=C1NC(=O)[C@@H](c2cn3c4c(cccc24)CCC3)[C@@H]1c1c[nH]c2ccccc12 [tivantinib] | 107 | 94.3 | 103 | 60.2 | 44.7 | 108 | 96.5 | 99.5 | 39.5 | 41.5 | 102 | 102 | 95.1 | 51.9 | 26.2 | 97.3 | 99.8 | 92.8 | 36.5 | 28.2 | 0.688 | 0.311 | 0.648 | 0.331 | 7.7 | 11.1 | 10.1 | 12.7 | 98.3 | 94.1 | 98.9 | 72.6 | 59.6 | – | 5.3
Cn1cc(/C=C2\C(=O)Nc3cccnc32)c2ccccc21 | 97.9 | 94.4 | 95.2 | 94 | 91.7 | – | – | – | – | – | 93.9 | 98.4 | 95.3 | 101 | 99.5 | 96 | 97.1 | 92.7 | 87 | 106 | > 10 | – | > 10 | > 10 | 0 | – | 0 | 0 | 88.6 | 114 | 102 | 109 | 122 | > 10 | 0
CN[C@H]1CC[C@@H](c2ccc(Cl)c(Cl)c2)c2ccccc21 [SERTRALINE HYDROCHLORIDE] | 99.2 | 103 | 95.9 | 102 | 84.4 | 102 | 108 | 98.1 | 112 | 79.2 | 103 | 99.1 | 93 | 100 | 81.5 | 98.5 | 97.4 | 102 | 93.6 | 77.8 | > 10 | > 10 | > 10 | > 10 | 0.2 | 0.4 | 0.5 | 1.6 | 102 | 105 | 104 | 103 | 58.3 | – | 1.9
O=C(Nc1cccc(Br)c1)c1cccc(S(=O)(=O)N2CCCCCC2)c1 [AK-7] | 90.6 | 94.9 | 93.5 | 92.9 | 75.1 | 96.7 | 103 | 99.9 | 104 | 72.9 | 97.7 | 92.8 | 98.5 | 92.8 | 86.3 | 98.7 | 102 | 99.4 | 100 | 94.3 | > 10 | – | > 10 | > 10 | 1.4 | 0.9 | 0 | 0 | 102 | 94 | 106 | 105 | 77 | > 10 | 0.6
O=C(O)c1ccccc1S [o-mercapto-benzoic-acid] | 98 | 87.2 | 86.4 | 102 | 99.4 | 99.7 | 91.5 | 89.9 | 101 | 112 | 97.9 | 94.1 | 95.9 | 94.8 | 109 | 92.2 | 97.9 | 96.2 | 105 | 106 | > 10 | > 10 | > 10 | > 10 | 0 | 0 | 0 | 0 | – | – | – | – | – | – | –
CCCCc1nc(Cl)c(C(=O)O)n1Cc1ccc(-c2ccccc2-c2nn[nH]n2)cc1 [carboxylosartan] | 96.6 | 98.8 | 95.5 | 100 | 96.9 | 99.6 | 102 | 94.5 | 113 | 95.7 | 103 | 102 | 101 | 98.7 | 102 | 103 | 109 | 98.3 | 104 | 96.5 | > 10 | > 10 | > 10 | > 10 | 0 | 0 | 0 | 0 | – | – | – | – | – | – | –
